According to patent US20170138931A9, “METHOD FOR DIAGNOSIS OF INFLAMMATORY DISEASES USING CALGRANULIN C” (WESTFAELISCHE WILHELMS-UNIVERSITAET MUENSTER, priority 2002, published 2017):
Marks after values point to notes of the source that are not given here.

Columns and labels:
[1] = tested on: Human mixed donor neutrophils; test: CALGRANULIN C secretion by neutrophils stimulated with TNF alpha in vitro; format: cell-based
Method: Human mixed donor neutrophils were isolated from buffy coats (German red cross, Munster, Germany) as described before (Vogl et al., 1999, J Biol Chem 274: 25291-25296). Briefly, centrifugation through Ficoll-Hypague (Biocoll, Biochrom, Berlin, Germany) was performed to separate neutrophils from mononuclear cells and platelets. Erythrocytes were separated by dextran sedimentation. The remaining cells were washed twice in PBS. Purity of cells was above 95%, as determined by morphological analysis of Trypan-blue stained cells. Neutrophils were resuspended at a final concentration of 1×10^7 cells/ml in serum free RPMI medium (Biochrom, Berlin, Germany) supplemented with 1% glutamine, 1% non-essential amino acids, and 1% penicillin/streptomycin. […] Stimulated and non-stimulated cells were incubated for 15 or 30 minutes at 37° C., respectively. Finally, neutrophils were pelleted at 500×g for 5 minutes at 4° C. and the supernatant was saved for analyses of CALGRANULIN C with sandwich-ELISA. Cell lysis was assessed by analysing activity of lactate dehydrogenase (LDH) using its capacity to convert NADH to NAD^+ and measuring the decrease of absorbency of NADH at 340 nm. Protease inhibitors were added to prevent proteolytic degradation.

[2] = tested on: CALGRANULIN C serum levels; test: CALGRANULIN C serum levels in Crohn's disease patients treated with infliximab; format: in vivo, human; settings: 3 Crohn's disease patients; before, 2 weeks and 4 weeks after infliximab
Method: FIG. 11: CALGRANULIN C serum levels in patients with Crohn's disease due to infliximab treatment. Individual courses of CALGRANULIN C and CDAI in 3 patients before, 2 weeks, and 4 weeks after treatment with infliximab (a-c).
(§1) Concentrations of CALGRANULIN C in the serum of patients were determined by a double sandwich enzyme linked immunosorbent assay (ELISA) system. Flat-bottom 96-well microtiter plates (Maxisorp; Nunc, Roskilde, Denmark) were coated at 50 μl/well with 10 ng/well of anti-CALGRANULIN C in 0.1 M sodium carbonate buffer, pH 9.6; incubated for 16 h at 4° C.; washed three times with phosphate buffer saline and 0.1% Tween 20, pH 7.4 (wash buffer); and blocked with wash buffer containing 0.25% bovine serum albumin (block buffer) for 1 h at 37° C. Plates were washed once with wash buffer and 50 μl of samples with varying dilutions in block buffer were added for 1 h at room temperature. The ELISA was calibrated with purified CALGRANULIN C in concentrations ranging from 0.016 to 125 ng/ml. […] Absorbency at 405 nm was measured with ELISA-reader (MRX microplate reader, Dynatech Laboratories, St Peter Port, Guernsey, UK).
Crohn's disease patients (n=40), ulcerative colitis patients (n=34) and healthy controls (n=30) were investigated: CALGRANULIN C protein serum levels were measured as described above using ELISA. In parallel, CRP and ESR were determined. […]

JRA patients = settings: Ravelli et al., 1995; cited from earlier work
[3] = tested on: CALGRANULIN C expressed in synovial tissue; test: Immunohistochemical analysis of CALGRANULIN C in synovial tissue of psoriatic arthritis patients before and after MTX treatment; format: in vivo, human; settings: for number of CALGRANULIN C-positive cells per field in synovial membrane, mean score of 10 fields: after MTX treatment, 400-fold magnification
Method: To confirm local expression of CALGRANULIN C at sites of inflammation we performed immunohistochemical studies. Synovial biopsies were performed in 4 patients with psoriatic arthritis before and after MTX-therapy. In addition, biopsies were obtained from 5 patients with psoriatic arthritis not receiving MTX, 2 patients with rheumatoid arthritis, and 2 patients with seronegative arthritis. Two biopsies of patients without synovial inflammation served as negative controls. Cryo-fixed and paraffin-embedded sections were prepared as commonly known in the art. Rabbit anti-human CALGRANULIN C antibody was used to detect CALGRANULIN C expression. Mouse-anti-human CD15, a granulocyte-associated antigen, was used to detect granulocytes in infiltrates. Mouse-anti human CD163 antibody (clone RM3/1, detecting a macrophage-specific scavenger receptor) was employed to characterize macrophages in infiltrates. Species matching control antibodies of irrelevant specificity were used as negative controls. Finally the sections were counterstained with Mayer's haematoxylin. Secondary antibodies and substrates for colour reactions were used as described before. For double-labelling experiments, anti-CALGRANULIN C antibody was followed by anti-CD15 antibody. We used affinity-purified goat-anti-mouse or goat-anti-rabbit secondary antibodies conjugated with either Texas Red or FITC (Dianova, Hamburg, Germany). Fluorescence was analysed using a Zeiss Axioskop connected to an Axiocam camera supply with Axiovision 3.0 for windows (Zeiss, Göttingen, Germany). No cross-reactivity or spillover was detected in control experiments after omitting specific antibodies or replacing them by isotype-matched control antibodies of irrelevant specificity.
We analysed the effects of MTX treatment on CALGRANULIN C expression in serum of 14 patients with psoriatic arthritis and in synovial membranes of 4 patients. Before treatment, extensive expression of CALGRANULIN C was found in synovial tissue of psoriatic arthritis patients before MTX treatment (cf. FIG. 7G), as described above predominantly in the sub-lining layer and perivascular.

[4] = tested on: patients with psoriatic arthritis; test: Disease activity in patients with psoriatic arthritis after initiation of MTX treatment; format: in vivo, human
Method: We investigated 42 patients with chronic inflammatory arthritis. CALGRANULIN C concentrations were analysed in serum and synovial fluid using a sandwich-ELISA as described above. Serum levels were determined from 14 patients (9 male, 5 female; mean age 40 years; range 21-64) suffering from psoriasis arthritis (mean disease duration 14.6±8.6 months), who where treated with the anti-inflammatory drug MTX (mean dose 12.9±4.8 mg). No other medication apart from non-steroidal anti-inflammatory drugs (NSAIDs) were taken. Serum was obtained before and after treatment (mean follow up interval 6.4±1.3 months). In addition, paired serum and synovial fluid samples were available from 28 patients who underwent arthroscopy (8 patients with psoriatic arthritis, 9 patients with rheumatoid arthritis, 11 patients with seronegative arthritis). All patients were examined by the same physician. Clinical status of patients was documented by recording early morning stiffness, pain score, Ritchie articular index (RI) (Ritchie et al., 1968, QJ Med 37: 393-406) and number of swollen joint count (SJC). […] Patients with seronegative arthritis were in between these groups. In addition to the clinical status, CRP, ESR, anti nuclear antibodies (ANA), and rheumatoid factor (RF) were documented.
Response to therapy was paralleled by a marked decrease of CALGRANULIN C serum levels after MTX treatment (mean 240 ng/ml prior versus 100 ng/ml after MTX; cf. FIG. 8). CALGRANULIN C levels correlated well with improving EMS, pain score, RI and SJC.

[5] = tested on: CALGRANULIN C serum levels; test: Serum CALGRANULIN C by sandwich ELISA in psoriatic arthritis patients treated with MTX; format: in vivo, human; settings: 14 psoriatic arthritis patients, after MTX; 240 ng/ml prior
Method: as §1, with “temperature.” for “temperature. The ELISA was calibrated with purified CALGRANULIN C in concentrations ranging from 0.016 to 125 ng/ml.”
We investigated 42 patients with chronic inflammatory arthritis. CALGRANULIN C concentrations were analysed in serum and synovial fluid using a sandwich-ELISA as described above. Serum levels were determined from 14 patients (9 male, 5 female; mean age 40 years; range 21-64) suffering from psoriasis arthritis (mean disease duration 14.6±8.6 months), who where treated with the anti-inflammatory drug MTX (mean dose 12.9±4.8 mg). […]
We analysed the effects of MTX treatment on CALGRANULIN C expression in serum of 14 patients with psoriatic arthritis and in synovial membranes of 4 patients. […]

[6] = tested on: interaction of CALGRANULIN C with RAGE; settings: blocking the CALGRANULIN C-RAGE interaction; Hofmann et al. 1999, Schmidt et al. 2001; cited from earlier work
[7] = Stability of CALGRANULIN C protein; format: physicochemical; settings: at room temperature or after multiple thawing and freezing cycles

Molecule: TNF alpha
- CALGRANULIN C secretion into supernatant ([1]; TNF alpha 2 or 5 ng/ml, 15 or 30 minutes at 37° C., unstimulated cells between 5 and 10 ng/ml): time- and dose-dependent increase
- viability and cell lysis tested by LDH activity ([1]; stimulated vs non-stimulated neutrophils): no differences

Molecule: infliximab: TNF blocking agents such as anti-TNF antibodies, e.g. infliximab
- CALGRANULIN C serum levels after treatment [2]: decreased rapidly

Molecule: CN(Cc1cnc2nc(N)nc(N)c2n1)c1ccc(C(=O)N[C@@H](CCC(=O)O)C(=O)O)cc1 [MTX, methotrexat]
- JRA patients who relapse after withdrawal of treatment (JRA patients): about 50%
- number of CALGRANULIN C-positive cells per field in synovial membrane, mean score of 10 fields ([3]; Patient 1, psoriatic arthritis, before MTX 23): 3
- number of CALGRANULIN C-positive cells per field in synovial membrane, mean score of 10 fields ([3]; Patient 2, psoriatic arthritis, before MTX 12): <1
- number of CALGRANULIN C-positive cells per field in synovial membrane, mean score of 10 fields ([3]; Patient 3, psoriatic arthritis, before MTX 17): <1
- number of CALGRANULIN C-positive cells per field in synovial membrane, mean score of 10 fields ([3]; Patient 4, psoriatic arthritis, before MTX 21): <1
- CALGRANULIN C expression in synovial biopsies ([3]; psoriatic arthritis patients after effective MTX treatment, extensive expression before): almost undetectable
- CRP ([4]; before MTX 4.2, p < 0.05): 2.5* mg/dl
- Pain ([4]; before MTX 5.3, p < 0.05): 3.2* points
- RI (Ritchie articular index) ([4]; before MTX 6.3, p < 0.01): 1.9** points
- SJC (swollen joint count) ([4]; before MTX 9.6, p < 0.01): 3.3** No.
- ESR ([4]; before MTX 28, p < 0.05): 12* mm/h
- EMS (early morning stiffness) ([4]; before MTX 76, p < 0.01): 25** min
- mean CALGRANULIN C serum level [5]: 100 ng/mL

B1: sRAGE: soluble RAGE, receptor for advanced glycation end products, used as blocking agent in mouse models (protein, UniProt Q62151 23-340, looked up)
extracellular domain: GQNITARIGEPLVLSCKGAPKKPPQQLEWKLNTGRTEAWKVLSPQGGPWDSVARILPNGSLLLPATGIVDEGTFRCRATNRRGKEVKSNYRVRVYQIPGKPEIVDPASELTASVPNKVGTCVSEGSYPAGTLSWHLDGKLLIPDGKETLVKEETRRHPETGLFTLRSELTVIPTQGGTHPTFSCSFSLGLPRRRPLNTAPIQLRVREPGPPEGIQLLVEPEGGIVAPGGTVTLTCAISAQPPPQVHWIKDGAPLPLAPSPVLLLPEVGHEDEGTYSCVATHPSHGPQESPPVSIRVTETGDEGPAEGSVGESGLGTLA
modifications: extracellular domain
- effect in mouse models of inflammation including arthritis [6]: clear anti-inflammatory effects

B2: CALGRANULIN C: small protein of 92 amino acids which belongs to the family of calcium-binding S100 proteins; SEQ ID NO:2 (protein)
chain: MTKLEEHLEGIVNIFHQYSVRKGHFDTLSKGELKQLLTKELANTIKNIKDKAVIDEIFQGLDANQDEQVDFQEFISLVAIALKAAHYHTHKE
modifications: homo sapiens
- stability of the protein [7]: extremely stable
